Test results taken from patent US20190314297A1, “COMBINATION THERAPY OF CBD AND COPAXONE” (TO PHARMACEUTICALS LLC, priority 2016, published 2019).
“Also recorded” adds a separate entry of the source. Where two headings read alike, the source gives them in different places.

Key:
[1] = tested on: EAE model in mice; test: Suppression of PLP (139-151)-induced relapsing-remitting EAE, daily clinical score; assay type: in vivo, SJL/J female mice; conditions: monotherapy vs control (vehicle); CBD 5 mg/kg i.p., Copaxone 1 mg/mouse s.c., daily five times a week; FIG. 1-3
From the text: SJL/J female mice were purchased from Harlen. Mice at the age of 6-7 weeks old were used to the in the experiments described below. All the experiments were done in accordance with the protocol approved by the Ethics Committee of the Hebrew University of Jerusalem. The mice were housed in cages with free access to food and water. They were maintained in 12 hr. light/dark cycle at room temperature.
Mice were immunized with PLP (139-151) emulsified in CFA together with pertussis vaccine according to the method described in Hooke Laboratories protocols (http://hookelabs.com/protocols/eaeAISJL). PLP is used to induce relapsing-remitting (RR)-EAE model. In the EAE experiments, SJL/J female mice at an age of 6-7 weeks old were used. Mice were observed daily for the appearance of neurological paralytic symptoms (6-7 mice/group), and were scored in scale from 0-5 denoting as follows:
Raw p-value were obtained from exact one-tail Mann Whitney tests and adjusted for multiple comparisons (within each experiment) using Holm modification of the Bonferroni correction
(§1) Histology Following s.c. injection of PLP (139-151) mixed with CFA as well as two pertussis-toxin injections and appearance of paralysis signs in the mice (usually after 9-11 days after initiation of EAE) treatment of mice began.
The treatments were given daily, five times a week and usually continued for about 60 days. […]

[2] = tested on: infiltration of immune cells into the spinal cord; test: Histology of immune cell infiltration into the spinal cord in EAE mice (eosin/hematoxylin); assay type: in vivo, SJL female mice; conditions: sixty days following injection of PLP; vs control non-treated mice
Description: as §1
(§2) The treatments were given daily, five times a week and usually continued for about 60 days. GA were given s.c. (at an injection dose of 1 mg/mouse), and CBD at a dose of 5 mg/kg were administrated i.p. (intraperitoneal).
Studies of monotherapies (CBD or Copaxone) and the combination therapy (CBD plus Copaxone) also included histological studies of infiltration of immune cells into the spinal cord in EAE mice (i.e., MS core pathology).

[3] = tested on: skin at the site of subcutaneous Copaxone injection; test: Cutaneous wound at the site of repeated s.c. Copaxone injection in EAE mice; assay type: in vivo, SJL/J female mice
Description: as §2
In mice treated with the Copaxone only (2 out of 7 mice), a skin lesion developed on the back at the site of repeated Copaxone injections.

[4] = tested on: acute EAE; conditions: oral GA, rats; cited from earlier work
[5] = tested on: acute EAE; conditions: oral GA, mice; cited from earlier work
[6] = tested on: acute EAE; conditions: oral GA, rhesus monkeys; cited from earlier work

Compound	clinical score [1]	infiltration of immune cells into the white section of the spinal cord [2]	skin lesions (cutaneous wound) at the injection site, in words ([3]; CBD 5 mg/kg i.p. with or without Copaxone 1 mg/mouse s.c.)	skin lesion developed at the site of repeated Copaxone injections (incidence) ([3]; Copaxone only, 1 mg/mouse s.c.)	effect on acute EAE [4]	effect on acute EAE [5]	effect on acute EAE [6]
C=C(C)[C@@H]1CCC(C)=C[C@H]1c1c(O)cc(CCCCC)cc1O [CBD, 2-[(1R,6R)-6-isopropenyl-3-methylcyclohex-2-en-1-yl]-5-pentylbenzene-1,3-diol]	significant decrease in clinical score; also recorded: significantly decreased clinical score	almost total reduction of such infiltration	No suchlesions were observed	–	–	–	–
Glatiramer acetate [Copaxone]	significantly decreased clinical score	almost total reduction of such infiltration	–	2 out of 7	suppress acute EAE	suppress acute EAE	suppress acute EAE
